In PMC12173412 (PLOS Neglected Tropical Diseases, 2025) one finds Ki and Kd data, which are given here for three compounds.

What is called Ki is the dissociation constant of the complex between target and ligand, obtained from inhibition or displacement. By Kd is commonly meant the constant that tells how readily two partners part at equilibrium.

The target in assay [1] is Odor Binding Protein-like (OBPL). Set-up: species or system Haemaphysalis longicornis.
Assay [2] addresses Niemann-Pick type C2 (NPC2). It is filed as binding, Haemaphysalis longicornis.
Assay [3] concerns the target Odor Binding Protein-like (OBPL). On the set-up: species or system Haemaphysalis longicornis. The source holds these as a separate data set.
Assay [4] addresses Niemann-Pick type C2 (NPC2). It is filed as binding, Haemaphysalis longicornis. The source holds these as a separate data set.

As to `Cc1c[nH]c2ccccc12` [3-methylindole], the Ki was 4.19 µM in assay [1] and 15.4 µM in assay [2].
For `c1ccc2[nH]ccc2c1` [indole], in that order: 2.26 µM and 10.3 µM.
For `c1ccc(Nc2cccc3ccccc23)cc1` [1-NPN], the Kd was determined as 2.56 µM in assay [3] and 3.18 µM in assay [4].
